# Details: rat; liver microsomes; pH 7.4; 15.0 min; 1.0 µM
row,SMILES,half-life [min]
1,CC(C)(C)c1ccc(C(=O)Nc2ccc3c(c2)CCCN3C(=O)c2cccs2)cc1,2.33
2,COc1ncccc1-c1cc2c(ccn2CC2CCN([S+](C)(=O)[O-])CC2)c(N2CCOCC2)n1,13.9
3,Cc1nc(NC(=O)C2CC(=O)N(c3n[nH]c4cc(Br)ccc34)C2)sc1C (stereo not given),18.5
4,NC(=O)C1CCN(c2nc(-c3ccc4c(c3)CCO4)cs2)CC1,5.55
5,O=C1c2ccccc2-n2c1nc1ccccc1c2=O,21.3
6,O=C(NCc1cccs1)c1cn2cc(-c3ccccc3)sc2n1,12.7
7,Cc1cnc(SCc2ccccn2)nc1C1CCCN(C(=O)c2scc3c2CCCC3)C1 (stereo not given),1.01
8,O=S(=O)(Nc1nccs1)c1ccc(NCc2cccc3cc[nH]c23)cc1,> 30
9,Cc1nn2c(c1-c1ccccc1-c1ccccc1)N(Cc1ccc(O)cc1)CCC2,1.97
10,C[C@]1(CO)CN(c2cc(C(=O)Nc3ccc4c(c3)-c3c(c(C(N)=O)nn3-c3ccc(F)cc3)CC4)c(Cl)cn2)C[C@@]1(C)CO,23.2
11,CCOc1ccc(CCNC(=O)c2cc3ccccc3n2Cc2cccc(C)n2)cc1OCC,1.6
12,CCOC(=O)Nc1ccc(NCc2ccc(F)cc2)nc1N,> 30
13,Cc1cn(CCN2CCN(c3ccccc3-c3cc(C#N)cc(C(=O)NCCCN4CCCC4)c3)CC2)c2ccccc12,> 30
14,Cc1ccc(-n2nc(C)c3c(-c4ccc(O)c(O)c4)c(C#N)c(N)nc32)cc1C,15
15,FC(F)(F)c1ccccc1-c1nc(NCc2ccccc2)c2ccccc2n1,2.74
16,O=C(Nc1ncc(Cc2ccc(C(F)(F)F)cc2)s1)c1ccc(-c2ccccc2)o1,> 30
17,[2H]C([2H])(Nc1nc(-c2ccccc2C([2H])(C([2H])([2H])[2H])C([2H])([2H])[2H])ncc1C)c1ccc(-n2ccnn2)cc1,13
18,COc1ccc(S(=O)(=O)Nc2cnccc2C(=O)Nc2nc(-c3ccccc3)cs2)cc1,1.6
19,Cc1nn(CCc2nc(-c3ccccc3F)cs2)c2[nH]c(=O)cc(C(F)(F)F)c12,9.3
20,N#Cc1nc(-c2cccc3ccccc23)oc1Nc1ccccc1,> 30
21,O=S(=O)(Nc1nc2n(n1)C(c1ccccc1)C=C(c1ccc(Cl)cc1)N2)c1ccccc1 (stereo not given),> 30
22,CCOc1cc(=O)n2c(c1C(=O)Nc1cc(OC)c(Cl)cc1OC)CCCC2,> 30
23,Cc1ccc(NC2=C(c3ccc(C(F)(F)F)cc3)C(=O)c3ccccc32)cc1C,5.08
24,CC1=C[C@@H](CNC(C)C)[C@H](C(C)C)C[C@H]1Cc1nnc(-c2ccncc2)o1,4.76
25,COc1ccc(-n2nc(C3CCCN(C(=O)c4ccccc4F)C3)[nH]c2=O)cc1 (stereo not given),> 30

row,SMILES,half-life [min]
1,C1CCc2nc3c(nc2C1)CCCC3,> 30
2,O=C(Cc1ccc(Cl)c(Cl)c1)Nc1ccc(S(=O)(=O)Nc2cccc(O)c2)cc1,10
3,CN1CCN(c2ccc(-c3cccc(CN4CCOCC4)c3)cc2NC(=O)c2c[nH]c(=O)cc2C(F)(F)F)CC1,> 30
4,C=C1C(=O)OC2C1CCC(C)C1(O)C=CC(=O)C21C (stereo not given),> 30
5,CCCCOc1ccc(C(=O)N2CCC(c3n[nH]c(=O)n3-c3ccc(C)cc3)CC2)cc1,5.43
6,CCS(=O)(=O)c1cccc(C(=O)Nc2ccc(-c3nc4ccccc4s3)c(O)c2)c1,> 30
7,CC(=O)c1c(C)[nH]c(C(=O)Nc2cccc([S+](=O)([O-])Nc3ccncc3)c2)c1C,> 30
8,CCC(CC)c1cc([C@H]2CN3CC[C@H]2C[C@@H]3CNC(=O)Cc2cccs2)nc(-c2ccncc2)n1,2.78
9,C[C@@]1(c2ncncc2F)NC(=O)c2cc(-c3cn[nH]c3)ccc21,> 30
10,Fc1ccccc1Nc1nc(-c2ccncc2)nc2ccccc12,7.9
11,Nc1c(C(=O)Nc2ccc(F)cc2)sc2nc(-c3cccs3)cc(C(F)(F)F)c12,> 30
12,O=C(Cn1ccn2nc3c(c2c1=O)CCCCC3)Nc1ccc2c(c1)OCO2,6.81
13,COc1cccc(-n2ncc3c2CCCC3NC(=O)c2ccccn2)c1 (stereo not given),11
14,CCNc1oc(-c2cccc3ccccc23)nc1C#N,13
15,CCOC(=O)N1CCN(Cc2nc3cc(NC(=O)CC(C)C)ccc3n2C(C)C)CC1,> 30
16,COc1ccc(N(C)C(=O)c2cc3c(s2)-c2ccccc2OC3)cc1,7.6
17,COc1ccc(NC2=C(c3ccc(C(F)(F)F)cc3)C(=O)c3ccccc32)cc1,7.57
18,C[C@H]1CN(C(=O)Nc2ccc(F)cc2)C[C@@H]1c1nc(-c2ccccc2)no1,> 30
19,Cc1cc(NS(=O)(=O)c2ccc(NC(=O)Cc3ccc(Cl)c(F)c3)cc2)no1,> 30
20,Cc1ccc(S(=O)(=O)Nc2ccc(Br)cc2C(=O)Nc2nc(-c3ccccc3)cs2)cc1,8.9
21,CC1=C(C(=O)Nc2ccc(Cl)cc2)C(c2ccccc2C)n2ncc(C(=O)Nc3ccc(C)cc3)c2N1 (stereo not given),9.84
22,CC1=C(C(=O)Nc2ccccc2)C(c2ccc[nH]2)n2ncnc2N1 (stereo not given),> 30
23,O=C(O)C1CCN(c2ncc(-c3ccc4c(c3)OCCCO4)s2)CC1,> 30
24,O=C(Nc1ccc(OC(F)(F)Cl)cc1)c1cnc(N2CC[C@@H](O)C2)c(-c2ccn[nH]2)c1,> 30
25,Cc1cc(NS(=O)(=O)c2ccc(NC(=O)Cc3ccc(Cl)c(Cl)c3)cc2)n(C)n1,13

row,SMILES,half-life [min]
1,Brc1ccc(-c2csc(N3CCC(c4nn[nH]n4)CC3)n2)cc1,> 30
2,COC(=O)c1ccccc1NC(=O)c1ccccc1OC(F)F,2.8
3,COc1ccc2[nH]cc(CCNC(=O)c3cnn(-c4ccc(C)cc4)c3C3CCN(C(=O)OC(C)(C)C)CC3)c2c1,1.65
4,Cn1cnc(-c2nccc3c(=O)[nH]c(OCCCC(F)(F)F)nc23)c1,16.5
5,O=S(=O)(Nc1ccc(-c2ccccc2)cc1)c1ccc(NCc2ccc(Br)cc2O)cc1,21
6,COc1ccc(-c2nc(N3CCOCC3)c3sc(CN(C)c4ncc(C(=O)NO)cn4)cc3n2)cn1,> 30
7,CCOc1ccc(CCNC(=O)c2cc3ccccc3n2CCN2CCOCC2)cc1OCC,1.6
8,Cc1sc(NC(=O)Cc2ccc3c(c2)OCO3)nc1-c1ccc2c(c1)CCN2C(=O)c1ccccc1F,20
9,Oc1ccc(CNc2ccc(C(F)(F)F)cc2F)c2cccnc12,5.53
10,Cc1cc(-c2nnc3n2CCCCC3)c(C)n1-c1cccnc1,15
11,CCCCC(C)/C=C(C)/C=C(\C)C(=O)NC1=CC(O)(/C=C/C=C/C=C/C(=O)NC2=C(O)CCC2=O)C2OC2C1=O (stereo not given),1.83
12,CC[C@H]1CN(C)[C@H]2Cc3c([nH]c4ccccc34)C(=O)C[C@H]1[C@H]2C(=O)OC,11.3
13,CCOc1ccccc1N(CC(=O)Nc1cc(OC)ccc1OC)S(=O)(=O)c1ccccc1,1.38
14,CC1(C)CC2CC(C)(CN2S(=O)(=O)c2ccc(C(=O)Nc3cccc(S(=O)(=O)N4CCOCC4)c3)cc2)C1 (stereo not given),2.8
15,Cc1ccc(S(=O)(=O)Nc2cnccc2C(=O)Nc2nc(-c3nc4ccccc4s3)cs2)cc1,24
16,CN1C(=O)c2ccccc2[S@](=O)c2ccc(C(=O)NCc3ccc(Cl)cc3)cc21,15
17,NC(=O)C1CCN(c2nc(-c3cccc4sc5ccccc5c34)cs2)CC1,> 30
18,CN1C(=O)CN=C(c2ccccc2Cl)c2cc(Cl)ccc21,3.04
19,CC(=O)Nc1ncc(S(=O)(=O)N2CCOCC2)s1,> 30
20,Oc1ccc(-c2nc(C3CC3)nc3c2CCN(CC2CCCCC2)CC3)cc1,5.28
21,COCCNCc1ccc(-c2cc3nccc(Oc4ccc(NC(=S)NC(=O)Cc5ccc(F)cc5)cc4F)c3s2)nc1,10.3
22,O=C(NCCCCc1ccccc1)C1CCN(c2nc(-c3ccc(Br)cc3)cs2)CC1,4.1
23,Brc1ccc(-c2csc(N3CCOCC3)n2)cc1,2.48
24,NC(=O)C1CCN(c2ncc(-c3ccc4c(c3)OC(F)(F)O4)s2)CC1,9.4
25,O=[S+]([O-])(Nc1ccc(C2CCNCC2)cc1)c1ccc(NCc2ccc(Cl)cc2O)cc1,> 30

row,SMILES,half-life [min]
1,CCCc1ccc(-c2csc(NC(=O)c3ccncc3NS(=O)(=O)c3ccc(C)cc3)n2)cc1,3.3
2,O=S(=O)(c1ccccc1)c1nnn2c1nc(NCc1cccs1)c1sccc12,1.88
3,CCn1c(=O)cc(OCC(=O)N2CCN(c3cccc(Cl)c3)CC2)c2ccccc21,2.66
4,Cn1cc(C2=C(c3cn(C)c4cc([N+](=O)[O-])ccc34)C(=O)NC2=O)c2ccccc21,4.05
5,CN(C)c1ccc(-c2csc(N3CCC(C(N)=O)CC3)n2)cc1,4.12
6,CCn1c(SCc2ccc(C#N)cc2)nnc1-c1cccc(Cl)c1,3
7,OCCn1cc(-c2cnc3nnn(Cc4ccc5ncccc5c4)c3n2)cn1,> 30
8,N#CC1(c2ccc(NC(=O)c3cccnc3NCc3ccncc3)cc2)CCCC1,9.14
9,Cc1cc(-c2nnc3n2CCCCC3)c(C)n1-c1ccc(Cl)cc1,1.9
10,Cc1cccc(-n2cnc3cc(C(=O)N4CCCCCC4)ccc32)c1,2.9
11,COc1ccccc1S(=O)(=O)Nc1cnccc1C(=O)Nc1nc(-c2ccccc2)cs1,16
12,CCOP(=O)(Cc1ccc(C(=O)Nc2ccc(Br)cc2C#N)cc1)OCC,> 30
13,Cc1ccc(S(=O)(=O)c2cnc(SC(C)C(=O)Nc3ccccc3)[nH]c2=O)cc1 (stereo not given),10.7
14,Cc1ccc(S(=O)(=O)Nc2ccccc2C(=O)Nc2nc(-c3ccc(Cl)cc3)cs2)cc1,8.85
15,CC1CCC(n2c3cnccc3c3cnc(Nc4ccc5c(n4)CCN(C(=O)CO)C5)nc32)CC1 (stereo not given),23.5
16,CNc1nc(-c2ccc3c(N)n[nH]c3c2)cc(N2C[C@@H](C(=O)NC3CCCCC3)CC[C@@H]2C)n1,1.85
17,CCOc1ccc(CCNC(=O)c2cc3cnccc3n2Cc2cccc(C)n2)cc1OCC,29
18,Cc1ccc(-c2cc(C(=O)Nc3ccc(S(N)(=O)=O)cc3)c3cccc(C)c3n2)cc1C,> 30
19,O=C(Nc1cccc(C(F)(F)F)c1)c1ccccc1NC(=O)C1CCCCC1,25
20,CS(=O)(=O)CCNCc1ccc(-c2ccc3ncnc(Nc4ccc(OCc5cccc(F)c5)c(Cl)c4)c3c2)o1,7.65
21,N#Cc1ccc(Nc2ncc(-c3cccc4ccccc34)o2)cc1,> 30
22,CCOc1ccc(CCNC(=O)c2cc3sccc3n2Cc2ccc(F)cc2F)cc1OCC,1.8
23,CCc1ccc(CNc2ccc3c(c2)ncn3C(C)(C)C)cc1,9.8
24,CNc1cc(-c2nc(Nc3ccc(F)c(F)c3)c3ccccc3n2)ccn1,8.2
25,COc1ccc(C2=Nc3ccc(C)cc3C(c3ccccc3)N2CC(=O)NN)cc1 (stereo not given),5.3

# Reference: PubChem BioAssay AID1508591
